Experimental data: patent US9693992B2 (MannKind Corporation, priority 2010, dated 2017)

Target: IRE-1α (Homo sapiens (Human), UniProt O75460)
Assay: Cellular EC50: endogenous XBP-1 splicing in myeloma cells (MM.1s, DTT stress, RT-PCR)
Format: cell-based
Details: average cellular EC50, XBP-1 splicing in myeloma cells
Procedure: Human myeloma MM.1s cells are incubated with a compound for 1.25 hours before stressing the cells with 2 mM dithiothreitol (DTT). After an additional 45 minutes (2 hours total) with compound and DTT, the cells are harvested with TRIZOL® (a mono-phasic solution of phenol and guanidine isothiocyanate), and total RNA is prepared as directed by the manufacturer (Invitrogen). Human XBP-1 is amplified by RT-PCR with the following primers, which flank the 26 base unconventional intron excised by IRE-1α:
RT-PCR of unstressed (U) cells then generates the upper band. When cells are stressed (S) with the endoplasmic reticulum (ER) stressing agent DTT, IRE-1α is activated due to accumulating unfolded protein and the resulting RT-PCR product is 26 base pairs shorter.
Compounds which pass specificity assays are assayed for cellular EC50 using endogenous XBP-1 splicing in myeloma cells. XBP-1 is regulated through the excision of a 26 nucleotide intron from the XBP-1 mRNA by the highly specific endoribonuclease activity of IRE-1α. […] This splicing event is used to measure IRE-1α activity on XBP-1 mRNA in cells and tissues.
Briefly, compounds are incubated in the presence or absence of an ER stress agent (e.g., DTT), and the ratio of XBP-1u (unspliced) to XBP-1s (spliced) is quantified by RT-PCR. The ED50 is determined as the 50% XBP-1s to total XPB-1 levels.

IRE-1α, sequence (O75460 19-977): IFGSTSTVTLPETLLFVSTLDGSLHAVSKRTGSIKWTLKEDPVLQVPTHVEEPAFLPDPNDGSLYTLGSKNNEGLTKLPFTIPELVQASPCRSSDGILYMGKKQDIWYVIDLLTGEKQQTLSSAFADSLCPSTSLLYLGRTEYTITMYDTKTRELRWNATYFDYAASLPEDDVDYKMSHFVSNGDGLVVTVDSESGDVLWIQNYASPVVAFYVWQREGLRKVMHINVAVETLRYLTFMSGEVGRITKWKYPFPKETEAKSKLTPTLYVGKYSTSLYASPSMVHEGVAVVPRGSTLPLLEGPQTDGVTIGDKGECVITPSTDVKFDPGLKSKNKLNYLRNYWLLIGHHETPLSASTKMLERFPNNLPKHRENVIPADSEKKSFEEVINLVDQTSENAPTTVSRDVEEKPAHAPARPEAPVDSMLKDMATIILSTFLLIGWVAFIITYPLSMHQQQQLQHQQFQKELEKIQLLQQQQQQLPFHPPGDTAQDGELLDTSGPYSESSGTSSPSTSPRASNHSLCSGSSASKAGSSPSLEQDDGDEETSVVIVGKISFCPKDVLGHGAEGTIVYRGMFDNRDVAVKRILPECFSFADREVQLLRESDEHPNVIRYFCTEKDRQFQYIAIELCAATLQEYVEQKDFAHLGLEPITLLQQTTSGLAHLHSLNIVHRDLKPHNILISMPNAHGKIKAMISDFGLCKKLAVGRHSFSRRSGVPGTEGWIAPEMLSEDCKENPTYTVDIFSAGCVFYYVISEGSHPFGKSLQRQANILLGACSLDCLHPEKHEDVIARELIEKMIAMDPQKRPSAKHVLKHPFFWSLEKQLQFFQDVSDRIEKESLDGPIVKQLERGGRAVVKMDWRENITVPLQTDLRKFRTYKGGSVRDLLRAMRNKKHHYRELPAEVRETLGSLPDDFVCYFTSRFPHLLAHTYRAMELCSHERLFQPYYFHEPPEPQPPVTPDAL

Row | SMILES | EC50 [µM]
1 | Cc1c(-c2ccc(C(=O)NCCN3CCOCC3)cc2)c(=O)oc2c(C=O)c(O)ccc12 [Example 3] | < 10
2 | CC(C)c1cc(=O)oc2c(C=O)c(O)ccc12 [Example 5] | < 10
3 | O=Cc1c(O)ccc2cc(C(=O)O)c(=O)oc12 [Example 8] | > 10
4 | Cc1c(-c2cccc(C(=O)N3CCN(C)CC3)c2)c(=O)oc2c(C=O)c(O)ccc12 [Example 10] | < 10
5 | Cc1c(-c2cccc(C(=O)NCCN3CCOCC3)c2)c(=O)oc2c(C=O)c(O)ccc12 [Example 11] | < 10
6 | Cc1c(-c2ccc(C(=O)N3CCOCC3)cc2)c(=O)oc2c(C=O)c(O)ccc12 [Example 12] | < 10
7 | Cc1c(-c2ccc(N3CCN(C)CC3)nc2)c(=O)oc2c(C=O)c(O)ccc12 [Example 14] | < 10
8 | Cc1c(CCC(=O)N2CCN(C)CC2)c(=O)oc2c(C=O)c(O)ccc12 [Example 15] | < 10
9 | Cc1c(-c2ccc(C(=O)N(C)C)cc2)c(=O)oc2c(C=O)c(O)ccc12 [Example 17] | < 10
10 | Cc1c(-c2cccc(C(=O)N(C)C)c2)c(=O)oc2c(C=O)c(O)ccc12 [Example 20] | > 10
11 | Cc1cc(=O)oc2c(C=O)c(O)c(Cl)cc12 [Example 22] | < 10
12 | O=Cc1c(O)ccc2c1CCN(Cc1ccccc1)C2 [Example 28] | > 10
13 | CN1CCN(C(=O)c2cnc(N3CCc4c(ccc(O)c4C=O)C3)s2)CC1 [Example 33] | > 10
14 | Cc1nc(N2CCc3c(ccc(O)c3C=O)C2)sc1C(=O)NC1CCNCC1 [Example 35] | > 10
15 | Cc1nc(N2CCc3c(ccc(O)c3C=O)C2)sc1C(=O)NC1CCN(C)CC1 [Example 36] | > 10
16 | Cc1nc(N2CCc3c(ccc(O)c3C=O)C2)sc1C(=O)NCCN1CCOCC1 [Example 37] | > 10
17 | CN1CCN(c2ncc(C(=O)N3CCc4c(ccc(O)c4C=O)C3)s2)CC1 [Example 38] | > 10
18 | CCc1cc2c(=O)c(-c3nc(C)cs3)coc2c(C=O)c1O [Example 39] | > 10
19 | O=Cc1c(O)ccc2c(=O)c(-c3cnn(-c4ccccc4)c3)coc12 [Example 40] | > 10
20 | CN1CCN(C(=O)c2ccc(-c3ccc4c(C=O)c(O)ccc4n3)cc2)CC1 [Example 41] | < 10
21 | CN1CCN(C(=O)c2cccc(-c3ccc4c(C=O)c(O)ccc4n3)c2)CC1 [Example 42] | < 10

Row | SMILES | EC50 [µM]
22 | O=Cc1c(O)ccc2nc(-c3ccc(C(=O)N4CCOCC4)cc3)ccc12 [Example 44] | < 10
23 | O=Cc1c(O)ccc2nc(-c3ccc(C(=O)NCCN4CCOCC4)cc3)ccc12 [Example 45] | < 10
24 | O=Cc1c(O)ccc2nc(-c3cccc(C(=O)NCCN4CCOCC4)c3)ccc12 [Example 46] | < 10
25 | O=Cc1c(O)ccc2nc(SCC(=O)O)[nH]c12 [Example 63] | > 10
26 | O=Cc1c(O)ccc2nc(-c3cccc(C(=O)O)c3)[nH]c12 [Example 64] | > 10
27 | COC(=O)c1cccc(-c2nc3ccc(O)c(C=O)c3[nH]2)c1 [Example 65] | < 10
28 | Cc1c(-c2ccc(C(=O)N3CCOCC3)cc2)c(=O)oc2c(C=O)c(O)c(Cl)cc12 [Example 67] | > 10
29 | CCOC(=O)c1sc(-c2cc3ccc(O)c(C=O)c3oc2=O)nc1C [Example 68] | < 10
30 | Cc1c(CC(=O)O)c(=O)oc2c(C=O)c(O)ccc12 [Example 70] | > 10
31 | Cc1oc2c(C=O)c(O)ccc2c(=O)c1CCC(=O)N1CCN(C)CC1 [Example 88] | > 10
32 | COc1cc2c(=O)c(CCC(=O)NCCN3CCOCC3)c(C)oc2c(C=O)c1O [Example 93] | > 10
33 | COc1cc2c(=O)c(CCC(=O)N3CCN(C)CC3)c(C)oc2c(C=O)c1O [Example 94] | > 10
34 | CCOC(=O)c1cnc(-c2cc3ccc(O)c(C=O)c3oc2=O)s1 [Example 106] | < 10
35 | CN1CCN(C(=O)c2cnc(-c3cc4ccc(O)c(C=O)c4oc3=O)s2)CC1 [Example 107] | < 10
36 | Cc1nc(-c2cc3ccc(O)c(C=O)c3oc2=O)sc1C(=O)N1CCN(C)CC1 [Example 108] | < 10
37 | Cc1nc(-c2cc3ccc(O)c(C=O)c3oc2=O)sc1C(=O)NCCN1CCOCC1 [Example 109] | < 10
38 | Cc1nc(-c2c(C)c3ccc(O)c(C=O)c3oc2=O)sc1C(=O)N1CCN(C)CC1 [Example 110] | < 10
39 | COc1cc2c(C)c(-c3ccc(C(=O)N4CCN(C)CC4)cc3)c(=O)oc2c(C=O)c1O [Example 111] | < 10
40 | Cc1c(/C=C/C(=O)N2CCN(C)CC2)c(=O)oc2c(C=O)c(O)ccc12 [Example 112] | < 10
41 | COc1cc2c(C)c(-c3ccc(N4CCN(C)CC4)nc3)c(=O)oc2c(C=O)c1O [Example 113] | < 10
42 | COc1cc2c(C)c(-c3ccc(N4CCOCC4)nc3)c(=O)oc2c(C=O)c1O [Example 114] | < 10

Row | SMILES | EC50 [µM]
43 | COc1cc2c(C)c(-c3ccc(N(C)C)nc3)c(=O)oc2c(C=O)c1O [Example 115] | < 10
44 | [2H]C(=O)c1c(O)ccc2c(C)c(-c3ccc(C(=O)NCCN4CCOCC4)cc3)c(=O)oc12 [Example 116] | < 10
45 | CCc1cc2c(C)c(-c3ccc(C(=O)NCCN4CCOCC4)cc3)c(=O)oc2c(C=O)c1O [Example 117] | < 10
46 | CCc1cc2c(C)c(-c3ccc(C(=O)NCCOC)cc3)c(=O)oc2c(C=O)c1O [Example 118] | < 10
47 | CCc1cc2c(C)c(-c3ccc(C(=O)N4CCOCC4)cc3)c(=O)oc2c(C=O)c1O [Example 119] | > 10
48 | COc1cc(O)c(C=O)c2oc(=O)cc(C)c12 [Example 120] | < 10
49 | COCCOc1cc(O)c(C=O)c2oc(=O)cc(C)c12 [Example 121] | < 10
50 | COCc1cc(=O)oc2c(C=O)c(O)cc(OC)c12 [Example 122] | < 10
51 | COCCc1c(C)c2c(O)cc(O)c(C=O)c2oc1=O [Example 123] | < 10
52 | COCCc1c(C)c2c(OC)cc(O)c(C=O)c2oc1=O [Example 124] | < 10
53 | COCCc1c(C)c2cc(OC)c(O)c(C=O)c2oc1=O [Example 125] | < 10
54 | C=CCc1c(C)c2c(OC)cc(O)c(C=O)c2oc1=O [Example 126] | < 10
55 | COCCOCCc1c(C)c2cc(OC)c(O)c(C=O)c2oc1=O [Example 127] | < 10
56 | Cc1c(CC(=O)N2CCOCC2)c(=O)oc2c(C=O)c(O)ccc12 [Example 129] | < 10
57 | Cc1c(CC(=O)N2CCN(C)CC2)c(=O)oc2c(C=O)c(O)ccc12 [Example 130] | < 10
58 | CCOC(=O)Cc1c(C)c2cc(OC)c(O)c(C=O)c2oc1=O [Example 131] | < 10
59 | COc1cc2c(CN3CCOCC3)c(C)c(=O)oc2c(C=O)c1O [Example 132] | < 10
60 | COc1cc2c(CN(C)C)c(C)c(=O)oc2c(C=O)c1O [Example 133] | < 10
61 | COc1cc(O)c(C=O)c2oc(=O)c(C)c(CN3CCOCC3)c12 [Example 134] | < 10
62 | COc1cc(O)c(C=O)c2oc(=O)c(C)c(CN(C)C)c12 [Example 135] | < 10
63 | COCc1cc(=O)oc2c(C=O)c(O)c(OC)cc12 [Example 136] | < 10

Row | SMILES | EC50 [µM]
64 | COCc1c(C)c(=O)oc2c(C=O)c(O)ccc12 [Example 137] | < 10
65 | COCCNC(=O)CCc1c(COC)c2cc(OC)c(O)c(C=O)c2oc1=O [Example 138] | > 10
66 | COCc1c(CCC(=O)N2CCOCC2)c(=O)oc2c(C=O)c(O)c(OC)cc12 [Example 139] | < 10
67 | COCc1c(CCC(=O)NCCN2CCOCC2)c(=O)oc2c(C=O)c(O)c(OC)cc12 [Example 140] | > 10
68 | COc1cc2c(C)c(-c3ccc(C(=O)N4CCN(C)CC4)s3)c(=O)oc2c(C=O)c1O [Example 141] | < 10
69 | COc1cc2c(C)c(-c3ccc(C(=O)N4CCOCC4)s3)c(=O)oc2c(C=O)c1O [Example 142] | < 10
70 | COc1cc2c(C)c(-c3ccc(C(=O)NCCN4CCOCC4)s3)c(=O)oc2c(C=O)c1O [Example 143] | < 10
71 | CCOC(=O)CCc1c(C)c2cc(N(C)C(C)=O)c(O)c(C=O)c2oc1=O [Example 144] | > 10
72 | COCCOCCc1c(C)c2c(OC)cc(O)c(C=O)c2oc1=O [Example 145] | < 10
73 | COc1cc2c(C(C)C)cc(=O)oc2c(C=O)c1O [Example 146] | < 10
74 | COc1cc2c(C)c(CCC(=O)NCCO)c(=O)oc2c(C=O)c1O [Example 147] | > 10
75 | COc1cc2c(C)c(CC(=O)NCCO)c(=O)oc2c(C=O)c1O [Example 148] | > 10
76 | COCOCCNC(=O)Cc1c(C)c2cc(OC)c(O)c(C=O)c2oc1=O [Example 149] | < 10
77 | COCCNC(=O)c1ccc(-c2c(C)c3cc(Cl)c(O)c(C=O)c3oc2=O)cc1 [Example 150] | > 10
78 | Cc1c(-c2ccc(C(=O)NCCN3CCOCC3)cc2)c(=O)oc2c(C=O)c(O)c(Cl)cc12 [Example 151] | > 10
79 | COCCNC(=O)CCc1c(C)c2c(OCCOC)cc(O)c(C=O)c2oc1=O [Example 152] | < 10
80 | COCCOc1cc(O)c(C=O)c2oc(=O)c(CCC(=O)N3CCOCC3)c(C)c12 [Example 153] | < 10
81 | COCCOc1cc(O)c(C=O)c2oc(=O)c(CCC(=O)N3CCN(C)CC3)c(C)c12 [Example 154] | < 10
82 | CCNC(=O)CCc1c(C)c2c(OCCOC)cc(O)c(C=O)c2oc1=O [Example 155] | < 10
